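Briefly, cells in 96-well plates were exposed to five compound concentrations for 48 h, and endpoints were estimated by linear interpolation. TGI is the concentration that stops growth completely.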
Legend:
Experiment in all cases: NCI anticancer screen, dose series, 48 h
M14 melanoma = tested on: M14 melanoma
EKVX NSCLC = tested on: EKVX NSCLC
HT29 colon = tested on: HT29 colon
DLD-1 colon = tested on: DLD-1 colon
SNB-75 CNS = tested on: SNB-75 CNS
LOX IMVI melanoma = tested on: LOX IMVI melanoma
SR leukemia = tested on: SR leukemia
M19-MEL melanoma = tested on: M19-MEL melanoma
COLO 205 colon = tested on: COLO 205 colon
OVCAR-4 ovarian = tested on: OVCAR-4 ovarian
IGROV1 ovarian = tested on: IGROV1 ovarian
SNB-19 CNS = tested on: SNB-19 CNS
SF-268 CNS = tested on: SF-268 CNS
HL-60(TB) leukemia = tested on: HL-60(TB) leukemia
SN12C renal = tested on: SN12C renal
OVCAR-8 ovarian = tested on: OVCAR-8 ovarian
SK-MEL-2 melanoma = tested on: SK-MEL-2 melanoma
SW-620 colon = tested on: SW-620 colon
DMS 273 small cell lung = tested on: DMS 273 small cell lung
HCT-116 colon = tested on: HCT-116 colon
SF-539 CNS = tested on: SF-539 CNS
XF 498 CNS = tested on: XF 498 CNS
ACHN renal = tested on: ACHN renal
LXFL 529 NSCLC = tested on: LXFL 529 NSCLC
NCI-H460 lung = tested on: NCI-H460 lung
RPMI-8226 leukemia = tested on: RPMI-8226 leukemia
A498 renal = tested on: A498 renal
KM20L2 colon = tested on: KM20L2 colon
SK-MEL-5 melanoma = tested on: SK-MEL-5 melanoma
UACC-62 melanoma = tested on: UACC-62 melanoma
HOP-62 NSCLC = tested on: HOP-62 NSCLC
SF-295 CNS = tested on: SF-295 CNS
CCRF-CEM leukemia = tested on: CCRF-CEM leukemia
TK-10 renal = tested on: TK-10 renal
OVCAR-3 ovarian = tested on: OVCAR-3 ovarian
786-0 renal = tested on: 786-0 renal
RXF 393 renal = tested on: RXF 393 renal
UO-31 renal = tested on: UO-31 renal
HCC-2998 colon = tested on: HCC-2998 colon
DMS 114 small cell lung = tested on: DMS 114 small cell lung
MALME-3M melanoma = tested on: MALME-3M melanoma
SK-MEL-28 melanoma = tested on: SK-MEL-28 melanoma
K-562 leukemia = tested on: K-562 leukemia
U251 CNS = tested on: U251 CNS
UACC-257 melanoma = tested on: UACC-257 melanoma
HCT-15 colon = tested on: HCT-15 colon
MOLT-4 leukemia = tested on: MOLT-4 leukemia
NCI-H226 lung = tested on: NCI-H226 lung
NCI-H23 lung = tested on: NCI-H23 lung
A549 NSCLC = tested on: A549 NSCLC
HOP-18 NSCLC = tested on: HOP-18 NSCLC
CAKI-1 renal = tested on: CAKI-1 renal
NCI-H522 lung = tested on: NCI-H522 lung
SNB-78 CNS = tested on: SNB-78 CNS
SK-OV-3 ovarian = tested on: SK-OV-3 ovarian
KM12 colon = tested on: KM12 colon
OVCAR-5 ovarian = tested on: OVCAR-5 ovarian

Structure (SMILES): COC(=O)CC(C(C(=O)OCc1ccccc1)C(C)O)N1C(=O)OCC1c1ccccc1 (centres undefined)
- TGI (M14 melanoma): > 100 µM
- TGI (EKVX NSCLC): > 100 µM
- TGI (HT29 colon): > 100 µM
- TGI (DLD-1 colon): > 100 µM
- TGI (SNB-75 CNS): 89.8 µM
- TGI (LOX IMVI melanoma): > 100 µM
- TGI (SR leukemia): > 100 µM
- TGI (M19-MEL melanoma): > 100 µM
- TGI (COLO 205 colon): > 100 µM
- TGI (OVCAR-4 ovarian): > 100 µM
- TGI (IGROV1 ovarian): > 100 µM
- TGI (SNB-19 CNS): > 100 µM
- TGI (SF-268 CNS): > 100 µM
- TGI (HL-60(TB) leukemia): > 100 µM
- TGI (SN12C renal): > 100 µM
- TGI (OVCAR-8 ovarian): > 100 µM
- TGI (SK-MEL-2 melanoma): > 100 µM
- TGI (SW-620 colon): > 100 µM
- TGI (DMS 273 small cell lung): > 100 µM
- TGI (HCT-116 colon): > 100 µM
- TGI (SF-539 CNS): > 100 µM
- TGI (XF 498 CNS): > 100 µM
- TGI (ACHN renal): > 100 µM
- TGI (LXFL 529 NSCLC): > 100 µM
- TGI (NCI-H460 lung): > 100 µM
- TGI (RPMI-8226 leukemia): > 100 µM
- TGI (A498 renal): > 100 µM
- TGI (KM20L2 colon): > 100 µM
- TGI (SK-MEL-5 melanoma): > 100 µM
- TGI (UACC-62 melanoma): > 100 µM
- TGI (HOP-62 NSCLC): > 100 µM
- TGI (SF-295 CNS): > 100 µM
- TGI (CCRF-CEM leukemia): > 100 µM
- TGI (TK-10 renal): > 100 µM
- TGI (OVCAR-3 ovarian): > 100 µM
- TGI (786-0 renal): > 100 µM
- TGI (RXF 393 renal): > 100 µM
- TGI (UO-31 renal): 90.6 µM
- TGI (HCC-2998 colon): > 100 µM
- TGI (DMS 114 small cell lung): > 100 µM
- TGI (MALME-3M melanoma): > 100 µM
- TGI (SK-MEL-28 melanoma): > 100 µM
- TGI (K-562 leukemia): > 100 µM
- TGI (U251 CNS): > 100 µM
- TGI (UACC-257 melanoma): > 100 µM
- TGI (HCT-15 colon): > 100 µM
- TGI (MOLT-4 leukemia): > 100 µM
- TGI (NCI-H226 lung): > 100 µM
- TGI (NCI-H23 lung): > 100 µM
- TGI (A549 NSCLC): > 100 µM

Structure (SMILES): COC1CC(O[C@H]2CC[C@@]3(C)C(=CCC4(O)C3CCC35C(=O)OC6(C)O[C@@]43CCC65)C2)OC(C)C1O (some centres undefined)
- TGI (M14 melanoma): > 100 µM
- TGI (EKVX NSCLC): > 100 µM
- TGI (HT29 colon): > 100 µM
- TGI (DLD-1 colon): > 100 µM
- TGI (SNB-75 CNS): > 100 µM
- TGI (SR leukemia): > 100 µM
- TGI (M19-MEL melanoma): > 100 µM
- TGI (COLO 205 colon): > 100 µM
- TGI (HOP-18 NSCLC): > 100 µM
- TGI (OVCAR-4 ovarian): > 100 µM
- TGI (IGROV1 ovarian): > 100 µM
- TGI (CAKI-1 renal): > 100 µM
- TGI (NCI-H522 lung): > 100 µM
- TGI (SNB-19 CNS): > 100 µM
- TGI (SF-268 CNS): > 100 µM
- TGI (HL-60(TB) leukemia): > 100 µM
- TGI (SN12C renal): > 100 µM
- TGI (OVCAR-8 ovarian): > 100 µM
- TGI (SK-MEL-2 melanoma): > 100 µM
- TGI (DMS 273 small cell lung): > 100 µM
- TGI (HCT-116 colon): > 100 µM
- TGI (SF-539 CNS): > 100 µM
- TGI (XF 498 CNS): > 100 µM
- TGI (ACHN renal): > 100 µM
- TGI (LXFL 529 NSCLC): > 100 µM
- TGI (NCI-H460 lung): > 100 µM
- TGI (SNB-78 CNS): > 100 µM
- TGI (RPMI-8226 leukemia): > 100 µM
- TGI (A498 renal): > 100 µM
- TGI (KM20L2 colon): > 100 µM
- TGI (SK-MEL-5 melanoma): > 100 µM
- TGI (UACC-62 melanoma): > 100 µM
- TGI (HOP-62 NSCLC): > 100 µM
- TGI (SF-295 CNS): > 100 µM
- TGI (CCRF-CEM leukemia): > 100 µM
- TGI (SK-OV-3 ovarian): > 100 µM
- TGI (TK-10 renal): > 100 µM
- TGI (KM12 colon): > 100 µM
- TGI (786-0 renal): > 100 µM
- TGI (RXF 393 renal): > 100 µM
- TGI (UO-31 renal): > 100 µM
- TGI (HCC-2998 colon): > 100 µM
- TGI (DMS 114 small cell lung): > 100 µM
- TGI (MALME-3M melanoma): > 100 µM
- TGI (OVCAR-5 ovarian): > 100 µM
- TGI (SK-MEL-28 melanoma): > 100 µM
- TGI (K-562 leukemia): > 100 µM
- TGI (U251 CNS): > 100 µM
- TGI (UACC-257 melanoma): > 100 µM
- TGI (HCT-15 colon): > 100 µM
- TGI (MOLT-4 leukemia): > 100 µM
- TGI (NCI-H226 lung): > 100 µM
- TGI (NCI-H23 lung): > 100 µM
- TGI (A549 NSCLC): > 100 µM
